In article PMC8980233, “Differentiating the Neuropharmacological Properties of Nicotinic Acetylcholine Receptor-Activating Alkaloids” (Frontiers in Pharmacology, 2022):
Entries after “also recorded” stand apart in the source; their conditions may differ. Like-named read-outs stand apart in the source and are kept apart here.

How the values were obtained:
[1] = tested on: dopamine release from striatal synaptosomes; test: In vitro [3H]dopamine release from crude striatal synaptosomes; format: biochemical, rat; details: for EC50: striatal synaptosomes
Method: In brief, male Sprague Dawley rats (200–225 g) were terminated by cervical dislocation followed by decapitation. The striatums or hippocampi were dissected and homogenized in ice-cold 0.32 M sucrose using a Dounce homogenizer. The homogenates were centrifuged at 100 x g for 5 min to pellet cell debris. The supernatants were collected and centrifuged at 17,000 x g for 10 min at 4°C to pellet crude synaptosomes.
The [^3H]norepinephrine- or [^3H]dopamine-treated crude synaptosomes were loaded onto closed filter chambers containing Whatman® Grade GF/C Glass Microfiber filters (Sigma-Aldrich, Merck KGaA, Darmstadt, Germany) and placed in a superfusion system. […] To ensure an even flow over the synaptosomal bed, trapped air bubbles were removed from the filters prior to collection of the fractions. After a superfusion period of 40 min, three basal fractions (1.5 ml/fraction) were collected first, followed by three fractions (1.5 ml/fraction) containing the test compound. Two additional fractions were collected in the presence of 30 mM KCl to depolarize the synaptosomes. […] Once all fractions were collected, the filters holding the crude synaptosome samples were removed and dried overnight at room temperature. On the following day, the scintillation cocktail was added and the filters were counted to determine residual radioactivity.
Compound-evoked release of neurotransmitters was calculated by subtracting the counts per minute (CPM) in the two basal fractions collected immediately prior to compound addition from those in the two fractions collected immediately following compound addition. The compound-evoked release was then expressed as a percentage of the basal release from that chamber. Potassium-evoked release was calculated by subtracting the CPM in the fraction immediately prior to KCl addition from the CPM in the […] immediately following potassium addition. Stimulated release was calculated as the percentage of basal release for that chamber. The increase in stimulated release above the baseline (no compound) release for that experimental run was determined, and the latter values were plotted on the graphs. Dose–response curves were determined using non-linear curve fitting in Prism (GraphPad Software, Inc, San Diego, CA, United States). All experiments were repeated at least three times.

α4β2 nAChR = α4β2 nAChR (Homo sapiens, UniProt P17787+P43681); test: nAChR functional assay, automated patch-clamp; format: cell-based
Method: (§1) Electrophysiological responses were recorded using an automated patch-clamp Patchliner Octo® system (Nanion Technologies, Munich, Germany) equipped with two EPC-10 Quadro patch-clamp amplifiers (HEKA Elektronik, Lambrecht, Germany) as described by ([Alijevic et al., 2020]). In brief, Chinese hamster ovary (CHO) or human embryonic kidney-293 (HEK-293) cells stably expressing human nAChRs (Charles River Laboratories, Wilmington, MA, United States) were maintained in DMEM/F12 medium (Gibco, Thermo Fisher Scientific, Waltham, MA, United States) supplemented with 10% heat-inactivated fetal bovine serum (FBS; Gibco) and penicillin–streptomycin (100 U/mL and 0.1 mg/ml, respectively; Sigma-Aldrich, St. Louis, MO, United States) at 37°C in 5% CO2 and 70% humidity. The following selection antibiotics were used for the cell lines: G418 (0.25 mg/ml; Sigma-Aldrich) and Zeocin^TM (0.4 mg/ml; InvivoGen, San Diego, CA, United States) for α7/Ric3 nAChR and α3β4 nAChR cells; puromycin (8 μg/ml; InvivoGen) and hygromycin B (0.4 mg/ml; Gibco) for α4β2 nAChR cells; and G418 (0.5 mg/ml), puromycin (0.25 μg/ml), and hygromycin B (0.02 mg/ml) for α6/3β2/β3 nAChR cells. The cells were used for characterizing nAChR pharmacology, because no endogenous ionotropic nicotinic receptors are found ([Roncarati et al., 2008]; [Papke and Smith-Maxwell, 2009]; [Kirsch et al., 2016]; [Scheffel et al., 2018]). The subunit distributions in the cells have been previously described ([Alijevic et al., 2020]). The human nAChRs were selected due to the lack of commercially available nAChR expression systems for mouse or zebrafish. The translatability of findings between zebrafish and human nAChR activities have been previously reported ([Papke and Smith-Maxwell, 2009]; [Papke et al., 2012]; [Alijevic et al., 2020]).
(§2) On the day of the experiment, nAChR-expressing cells were suspended in extracellular solution (in mM: 140 NaCl, 4KCl, one MgCl2, two CaCl2, five glucose, and 10 HEPES, adjusted to pH 7.4 with NaOH (298 mOsmol)), then placed in the Patchliner Octo® system. The internal solution contained in mM: 50 KCl, 60 kF, 10 NaCl, 20 EGTA, and 10 HEPES, adjusted to pH 7.2 with KOH (285 mOsmol). […] Data were analyzed using the Patchmaster software and corrected for leak current. The data acceptance criteria were as follows: seal resistance >100 MΩ; seal resistance loss variation <50%; access resistance <20 MΩ; and minimum current amplitude elicited by maximal effect concentration acetylcholine >50 pA. Offline data analysis was performed in OpenOffice™ (v4.1.2; The Apache Software Foundation, Wakefield, MA, United States). Data are presented as mean ± S.D. All experiments were performed at room temperature (24°C) and repeated at least three times. Igor Pro (v6.2.2.2; WaveMetrics, Lake Oswego, OR, United States) or Prism (v8.2.1) were used for assessing the concentration–response curves.

α6/3β2β3 nAChR = α6/3β2β3 nAChR (Homo sapiens, UniProt P17787+P32297+Q15825); test: nAChR functional assay, automated patch-clamp; format: cell-based
Method: as §1, §2

α3β4 nAChR = α3β4 nAChR (Homo sapiens, UniProt P30926+P32297); test: nAChR functional assay, automated patch-clamp; format: cell-based
Method: The following selection antibiotics were used for the cell lines: G418 (0.25 mg/ml; Sigma-Aldrich) and Zeocin^TM (0.4 mg/ml; InvivoGen, San Diego, CA, United States) for α7/Ric3 nAChR and α3β4 nAChR cells; puromycin (8 μg/ml; InvivoGen) and hygromycin B (0.4 mg/ml; Gibco) for α4β2 nAChR cells; and G418 (0.5 mg/ml), puromycin (0.25 μg/ml), and hygromycin B (0.02 mg/ml) for α6/3β2/β3 nAChR cells. […] The human nAChRs were selected due to the lack of commercially available nAChR expression systems for mouse or zebrafish.
Data were analyzed using the Patchmaster software and corrected for leak current. The data acceptance criteria were as follows: seal resistance >100 MΩ; seal resistance loss variation <50%; access resistance <20 MΩ; and minimum current amplitude elicited by maximal effect concentration acetylcholine >50 pA. Offline data analysis was performed in OpenOffice™ (v4.1.2; The Apache Software Foundation, Wakefield, MA, United States). […] Igor Pro (v6.2.2.2; WaveMetrics, Lake Oswego, OR, United States) or Prism (v8.2.1) were used for assessing the concentration–response curves.

[2] = mean ± S.D., no effect = up to 33 μM

Chain of α6/3β2β3 nAChR (Q15825+P32297 fused with the stated changes): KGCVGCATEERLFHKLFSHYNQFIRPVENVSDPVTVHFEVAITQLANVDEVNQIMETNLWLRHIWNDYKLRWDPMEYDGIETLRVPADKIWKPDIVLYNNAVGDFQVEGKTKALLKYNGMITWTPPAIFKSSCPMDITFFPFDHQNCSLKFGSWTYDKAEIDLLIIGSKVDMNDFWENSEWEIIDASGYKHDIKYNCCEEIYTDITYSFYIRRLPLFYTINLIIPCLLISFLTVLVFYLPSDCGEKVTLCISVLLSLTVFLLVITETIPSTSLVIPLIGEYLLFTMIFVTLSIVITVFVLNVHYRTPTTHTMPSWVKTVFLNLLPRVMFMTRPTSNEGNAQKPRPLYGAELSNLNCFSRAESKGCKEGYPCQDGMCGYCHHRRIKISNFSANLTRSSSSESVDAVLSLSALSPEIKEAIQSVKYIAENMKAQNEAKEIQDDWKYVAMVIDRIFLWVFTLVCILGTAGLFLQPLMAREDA
Chain of α6/3β2β3 nAChR (P17787 26-502): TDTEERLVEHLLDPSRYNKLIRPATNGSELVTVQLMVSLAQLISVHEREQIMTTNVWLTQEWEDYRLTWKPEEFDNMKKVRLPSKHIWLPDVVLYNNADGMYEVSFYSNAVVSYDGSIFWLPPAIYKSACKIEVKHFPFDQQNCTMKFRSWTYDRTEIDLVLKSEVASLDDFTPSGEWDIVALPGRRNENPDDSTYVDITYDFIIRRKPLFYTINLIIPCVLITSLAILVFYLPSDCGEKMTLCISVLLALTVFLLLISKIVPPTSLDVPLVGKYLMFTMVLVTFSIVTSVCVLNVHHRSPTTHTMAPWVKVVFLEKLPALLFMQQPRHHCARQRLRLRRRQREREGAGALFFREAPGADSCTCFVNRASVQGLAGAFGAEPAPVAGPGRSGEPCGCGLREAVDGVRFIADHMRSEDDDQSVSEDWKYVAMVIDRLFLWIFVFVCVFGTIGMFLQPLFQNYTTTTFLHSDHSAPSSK
Chain of α6/3β2β3 nAChR (Q05901 25-458 partner limits assumed): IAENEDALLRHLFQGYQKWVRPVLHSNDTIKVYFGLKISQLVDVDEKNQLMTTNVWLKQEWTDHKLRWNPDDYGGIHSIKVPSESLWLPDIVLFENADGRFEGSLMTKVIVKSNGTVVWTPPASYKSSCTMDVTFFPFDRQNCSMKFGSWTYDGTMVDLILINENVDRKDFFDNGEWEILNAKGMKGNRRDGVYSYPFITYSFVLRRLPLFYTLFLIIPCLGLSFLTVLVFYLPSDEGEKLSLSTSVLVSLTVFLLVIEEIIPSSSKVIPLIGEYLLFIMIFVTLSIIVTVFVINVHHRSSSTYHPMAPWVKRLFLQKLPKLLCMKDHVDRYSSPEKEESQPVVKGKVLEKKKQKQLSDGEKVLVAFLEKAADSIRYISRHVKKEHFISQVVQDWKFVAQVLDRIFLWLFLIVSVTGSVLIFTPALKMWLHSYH
Chain of α3β4 nAChR (P32297 32-505): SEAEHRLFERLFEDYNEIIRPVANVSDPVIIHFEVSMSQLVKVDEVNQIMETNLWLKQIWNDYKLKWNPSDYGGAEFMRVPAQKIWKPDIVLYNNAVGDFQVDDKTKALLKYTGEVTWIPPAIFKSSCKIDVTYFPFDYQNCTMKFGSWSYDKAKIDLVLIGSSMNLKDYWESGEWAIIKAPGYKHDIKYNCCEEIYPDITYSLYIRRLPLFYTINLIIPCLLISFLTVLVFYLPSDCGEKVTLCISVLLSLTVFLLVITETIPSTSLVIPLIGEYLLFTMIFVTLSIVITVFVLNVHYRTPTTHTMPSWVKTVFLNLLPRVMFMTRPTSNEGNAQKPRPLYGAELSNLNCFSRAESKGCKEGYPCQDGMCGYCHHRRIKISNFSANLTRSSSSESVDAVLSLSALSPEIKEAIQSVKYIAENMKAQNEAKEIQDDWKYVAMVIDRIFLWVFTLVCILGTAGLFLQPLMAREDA
Chain of α3β4 nAChR (P30926 22-498): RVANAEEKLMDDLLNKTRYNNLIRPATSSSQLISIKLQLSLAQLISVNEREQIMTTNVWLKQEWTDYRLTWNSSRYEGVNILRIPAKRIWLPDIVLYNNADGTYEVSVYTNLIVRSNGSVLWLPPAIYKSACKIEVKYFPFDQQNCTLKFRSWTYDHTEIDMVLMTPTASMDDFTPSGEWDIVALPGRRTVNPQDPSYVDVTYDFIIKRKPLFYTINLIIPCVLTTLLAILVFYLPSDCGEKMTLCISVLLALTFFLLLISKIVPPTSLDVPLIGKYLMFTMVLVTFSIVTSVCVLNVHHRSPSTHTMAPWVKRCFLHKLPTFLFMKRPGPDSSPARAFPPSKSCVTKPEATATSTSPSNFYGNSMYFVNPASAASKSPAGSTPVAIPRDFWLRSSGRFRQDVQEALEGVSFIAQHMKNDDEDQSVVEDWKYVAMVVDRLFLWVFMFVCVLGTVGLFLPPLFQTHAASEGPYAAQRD
Chain of α4β2 nAChR (P43681 29-627 limits assumed): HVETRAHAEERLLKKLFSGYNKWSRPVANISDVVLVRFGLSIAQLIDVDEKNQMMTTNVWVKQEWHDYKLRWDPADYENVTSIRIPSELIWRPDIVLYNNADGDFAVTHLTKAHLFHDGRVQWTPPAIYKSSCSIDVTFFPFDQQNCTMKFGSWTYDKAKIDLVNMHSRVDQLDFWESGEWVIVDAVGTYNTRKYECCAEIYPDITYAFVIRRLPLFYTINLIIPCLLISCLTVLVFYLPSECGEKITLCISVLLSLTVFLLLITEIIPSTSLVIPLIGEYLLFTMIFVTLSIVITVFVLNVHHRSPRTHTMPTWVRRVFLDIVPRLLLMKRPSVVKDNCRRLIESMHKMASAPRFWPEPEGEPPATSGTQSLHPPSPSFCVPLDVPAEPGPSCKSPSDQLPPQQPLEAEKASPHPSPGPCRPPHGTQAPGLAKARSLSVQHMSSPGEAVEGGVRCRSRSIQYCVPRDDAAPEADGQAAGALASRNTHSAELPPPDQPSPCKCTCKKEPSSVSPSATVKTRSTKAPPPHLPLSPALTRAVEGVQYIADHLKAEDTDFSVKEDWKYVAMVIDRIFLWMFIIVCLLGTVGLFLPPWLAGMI
Chain of α4β2 nAChR (P17787 26-502): as the sequence (P17787 26-502) above

Row | Compound | EC50 [1] [µM] | agonist type at α4β2 nAChR (α4β2 nAChR) | agonist type at α6/3β2β3 nAChR (α6/3β2β3 nAChR) | EC50 (α3β4 nAChR; [2]) [µM] | % of the full receptor activity, α3β4 nAChR (α3β4 nAChR; preliminary, data not shown) [%] | % of the full receptor activity, α4β2 nAChR (α4β2 nAChR; preliminary, data not shown) [%] | EC50 (α6/3β2β3 nAChR) [µM] | partial activation of α6-containing nAChRs, % of nicotine (α6/3β2β3 nAChR; preliminary data) | % of the full receptor activity, α6/3β2β3 nAChR (α6/3β2β3 nAChR; preliminary, data not shown) [%] | dopamine release ([1]; at higher concentrations) | α3β4 nAChR EC50 in µM (α3β4 nAChR; [2]) | EC50 (α4β2 nAChR; mean ± S.D.) [µM] | EC50 (α6/3β2β3 nAChR; mean ± S.D., read-out: α6/3β2β3 EC50) [µM]
1 | CN1CCC[C@H]1c1cccnc1 [Nicotine, (-)-Nicotine] | 0.19 | potent full agonist | potent full agonist |  |  |  |  |  |  |  |  |  | 
2 | C1=CCC(c2cccnc2)NC1 (racemic) [Anatabine, (±)-Anatabine] | 1.76 |  |  | 70.6 ± 8.2 | ~40 | ~60 | 3.6 ± 0.3 | approximately 67% | ~70 |  |  |  | 
3 | CN1C(=O)CC[C@H]1c1cccnc1 [Cotinine, (-)-cotinine] |  |  |  |  |  |  |  |  |  | 20–30% | no detectable activities; also recorded: No effect * | > 100 | > 100
